Blank lines part the entries; values can stand above or below the compound they belong to. The source made the active and inactive calls.
Assays:
[1] = molecular target: ALK tyrosine kinase receptor (Homo sapiens, UniProt Q9UM73); type: functional;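 also: ALK tested as one member of a kinase panel screen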
[2] = molecular target: Aurora kinase A (Homo sapiens, UniProt O14965); type: functional;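 also: value from the Navigating the Kinome kinase panel profiling, panel entry STK6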
[3] = molecular target: Paired box protein Pax-8 (Homo sapiens, UniProt Q06710); assay: PAX8 transcriptional activity inhibition in RMG-I – RMG-I cells, luciferase, cherry-pick, dose response (AID 687027); type: functional, cell-based;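 also: luciferase reporter driven by Pax8 target thyroperoxidase promoter measured by SteadyGlo luminescence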
[4] = viability loss of HPDE-C7K cells – cell-based, fluorescence, HTS, primary screen (AID 431); type: functional; details: Homo sapiens
[5] = molecular target: Protein disulfide-isomerase (Homo sapiens, UniProt P07237); assay: inhibition of PDI-driven insulin aggregation – biochemical, turbidity, absorbance, cherry-picked samples, dose response (AID 602350); type: functional
[6] = HPDE-C7 pancreatic duct cell viability loss – fluorescence, HTS (AID 430); type: functional, cell-based; details: Homo sapiens
[7] = molecular target: Aurora kinase B (Homo sapiens, UniProt Q96GD4); type: functional
[8] = molecular target: Ras and Rab interactor 1/Tyrosine-protein kinase ABL1 (Homo sapiens, UniProt P00519+Q13671); type: functional;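 also: biochemical TR-FRET dose-response test measuring inhibition of binding between Rin1 and Abl proteins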
[9] = molecular target: Beta Lactamase (Pseudomonas aeruginosa, UniProt Q932Y6); assay: BLA reporter interference, concentration series – BLA reporter cells, FRET fluorescence, artefact control for TLR9-MyD88 binding inhibitor project, dose response (AID 588341); type: cell-based;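 also: cell based assay in CHO-K1 cells stably expressing beta-lactamase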
[10] = system: BJ; assay: cells; type: functional, cell-based; details: Homo sapiens
[11] = system: BJ; assay: BJ-TERT-LT-ST fibroblast viability loss – cell-based, RAS-independent, luminescence, dose response (AID 1935); type: functional; details: Homo sapiens;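 also: BJ fibroblasts immortalized with TERT plus LT and ST oncogenes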
[12] = system: CHO; assay: CHO cell viability loss, potency – luminescence, cytotoxicity control for TLR9-MyD88 binding inhibitor project, dose response (AID 588339); type: functional, cell-based, hamster; details: Cricetulus griseus;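 also: CHO cells stably coexpressing TLR9 and MyD88 fusions from primary screen; compound exposure lasted 48 hours before viability readout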
[13] = system: BJ; assay: BJ-TERT fibroblast viability loss – cell-based, RAS-independent, luminescence, dose response (AID 1933); type: functional; details: Homo sapiens
[14] = DRD fibroblast viability loss – cell-based, non-viral oncogenic, luminescence, dose response (AID 1934); type: functional; details: Homo sapiens
[15] = blockers of CAL PDZ–TMR peptide complex – biochemical, fluorescence polarization, untagged CAL PDZ, cherry-pick, set 2, dose response (AID 602254); type: functional
[16] = molecular target: Melanocortin receptor 4 (Homo sapiens, UniProt P32245); assay: inhibitors of MC4R cAMP signaling – cell-based, TR-FRET, biased antagonists, dose response (AID 602298); type: functional;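 also: antagonist potency against agonist-stimulated cAMP production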
[17] = cAMP pathway inhibition in counterscreen cell line – TR-FRET cAMP detection, counter-screen for MC4R biased antagonist project, dose response (AID 602305); type: functional, cell-based;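 also: U2OS cells stimulated with forskolin near its EC80 as the cAMP inducer; potency is for inhibition of forskolin-stimulated cAMP signaling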
[18] = molecular target: T1, Coagulation factor XII (Homo sapiens, UniProt P00748); type: functional;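 also: activated factor XIIa alpha cleaving a fluorogenic AMC peptide substrate; inhibitor potency from loss of enzyme activity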
T1 sequence (P00748 whole entry): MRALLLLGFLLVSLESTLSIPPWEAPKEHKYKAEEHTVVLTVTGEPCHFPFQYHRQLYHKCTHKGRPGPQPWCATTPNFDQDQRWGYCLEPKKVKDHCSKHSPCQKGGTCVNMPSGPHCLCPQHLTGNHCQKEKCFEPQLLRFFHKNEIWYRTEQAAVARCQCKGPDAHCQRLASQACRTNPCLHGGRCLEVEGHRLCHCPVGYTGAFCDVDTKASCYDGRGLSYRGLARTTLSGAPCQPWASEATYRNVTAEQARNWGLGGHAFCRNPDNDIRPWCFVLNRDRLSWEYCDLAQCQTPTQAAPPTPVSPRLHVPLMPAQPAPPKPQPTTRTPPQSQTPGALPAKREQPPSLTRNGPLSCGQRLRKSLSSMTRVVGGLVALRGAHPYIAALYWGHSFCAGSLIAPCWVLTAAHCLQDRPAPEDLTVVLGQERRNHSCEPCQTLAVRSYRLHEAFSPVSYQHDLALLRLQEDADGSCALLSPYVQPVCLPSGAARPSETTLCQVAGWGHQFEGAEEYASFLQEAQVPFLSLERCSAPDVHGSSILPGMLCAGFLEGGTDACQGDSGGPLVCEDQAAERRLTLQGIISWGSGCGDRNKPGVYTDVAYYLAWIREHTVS

[19] = molecular target: T2, High affinity choline transporter 1 (Homo sapiens, UniProt Q9GZV3); assay: human choline transporter blockers, potency – cell-based, 10-point CRC, membrane potential dye, dose response (AID 588401); type: functional;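 also: membrane potential dye fluorescence of choline-evoked depolarization via CHT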
T2 sequence (Q9GZV3 whole entry): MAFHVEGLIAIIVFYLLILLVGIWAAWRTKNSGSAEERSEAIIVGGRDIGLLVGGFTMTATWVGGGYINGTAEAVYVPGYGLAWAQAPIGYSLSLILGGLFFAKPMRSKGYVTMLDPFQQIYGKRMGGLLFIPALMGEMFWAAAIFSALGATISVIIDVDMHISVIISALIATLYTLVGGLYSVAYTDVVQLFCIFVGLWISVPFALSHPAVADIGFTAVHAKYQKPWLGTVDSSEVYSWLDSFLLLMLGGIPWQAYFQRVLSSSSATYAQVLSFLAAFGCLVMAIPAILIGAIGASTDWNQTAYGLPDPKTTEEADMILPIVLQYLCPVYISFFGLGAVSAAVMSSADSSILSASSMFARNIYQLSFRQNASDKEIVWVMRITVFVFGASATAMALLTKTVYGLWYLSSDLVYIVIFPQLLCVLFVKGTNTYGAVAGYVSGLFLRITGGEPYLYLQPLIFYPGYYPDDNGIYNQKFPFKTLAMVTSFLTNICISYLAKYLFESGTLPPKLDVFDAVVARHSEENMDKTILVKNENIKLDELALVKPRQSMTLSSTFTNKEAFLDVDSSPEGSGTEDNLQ

[20] = molecular target: T2, High affinity choline transporter 1; assay: human choline transporter blockers, potency – cell-based, 5-point CRC, membrane potential dye, dose response (AID 504840); type: functional
[21] = reduced cellular PGC1a acetyl-lysine signal – cell-based, cherry-picked samples, dose response (AID 720514); type: functional;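 also: potency may reflect raised or lowered acetylation signal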
[22] = system: CHO-K1; assay: (§1) Counterscreen for antagonists of the orexin 1 receptor (OX1R; HCRTR1): Homogeneous time resolved fluorescence (HTRF)-based cell-based dose response assay to identify antagonists of the parental CHO-K1 cell line. [Related pubchem assays (depositor defined):AID434989, AID435008, AID463079, AID485270, AID492963, AID492964, AID492965, AID493232, AID504699, AID504701]; type: functional; details: Cricetulus griseus
[23] = molecular target: T3, Orexin/Hypocretin receptor type 1 (Homo sapiens, UniProt O43613); assay: (§2) Fluorescence-based cell-based high throughput dose response assay for antagonists of the orexin 1 receptor (OX1R; HCRTR1). [Related pubchem assays (depositor defined):AID434989, AID435008, AID463079, AID485270, AID492963, AID492964, AID492965, AID493232, AID504717, AID504718]; type: functional
T3 sequence (O43613 whole entry): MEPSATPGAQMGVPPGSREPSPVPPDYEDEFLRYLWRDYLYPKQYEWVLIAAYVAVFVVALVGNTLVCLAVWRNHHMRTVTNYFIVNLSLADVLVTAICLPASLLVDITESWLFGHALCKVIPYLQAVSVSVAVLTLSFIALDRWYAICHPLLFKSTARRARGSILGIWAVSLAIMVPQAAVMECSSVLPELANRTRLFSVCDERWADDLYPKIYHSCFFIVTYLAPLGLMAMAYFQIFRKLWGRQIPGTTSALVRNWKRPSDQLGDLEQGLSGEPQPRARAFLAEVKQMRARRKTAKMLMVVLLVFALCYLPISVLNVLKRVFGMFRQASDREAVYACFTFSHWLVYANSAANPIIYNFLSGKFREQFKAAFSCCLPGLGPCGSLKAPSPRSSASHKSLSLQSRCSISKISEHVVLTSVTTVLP

[24] = molecular target: T4, Orexin receptor type 2 (Homo sapiens, UniProt O43614); assay: Counterscreen assay for antagonists of the orexin 1 receptor (OX1R; HCRTR1): Fluorescence-based cell-based dose response assay for antagonists of the orexin 2 receptor (OX2R; HCRTR2), run by assay provider.; type: functional
T4 sequence (O43614 whole entry): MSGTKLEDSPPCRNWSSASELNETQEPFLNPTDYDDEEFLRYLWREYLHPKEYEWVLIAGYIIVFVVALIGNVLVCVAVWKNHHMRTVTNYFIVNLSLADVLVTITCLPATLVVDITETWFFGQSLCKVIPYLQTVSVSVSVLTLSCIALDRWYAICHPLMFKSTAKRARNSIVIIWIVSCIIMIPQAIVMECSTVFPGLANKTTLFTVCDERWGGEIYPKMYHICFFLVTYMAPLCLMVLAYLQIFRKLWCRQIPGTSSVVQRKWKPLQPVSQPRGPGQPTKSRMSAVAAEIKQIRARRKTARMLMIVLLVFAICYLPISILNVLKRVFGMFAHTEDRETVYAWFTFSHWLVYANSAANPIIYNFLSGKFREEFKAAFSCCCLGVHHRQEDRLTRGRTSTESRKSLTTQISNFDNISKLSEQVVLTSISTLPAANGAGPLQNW

[25] = molecular target: T4, Orexin receptor type 2; assay: Counterscreen assay for antagonists of the orexin 1 receptor (OX1R; HCRTR1): Homogeneous Time Resolved Fluorescence (HTRF)-based cell-based dose response assay for antagonists of the orexin 2 receptor (OX2R; HCRTR2), run by assay provider.; type: functional
[26] = molecular target: T3, Orexin/Hypocretin receptor type 1; assay: as §2, with “Homogeneous Time Resolved Fluorescence (HTRF)-based” for “Fluorescence-based”; type: functional
[27] = as §1, with “Fluorescence-based” for “Homogeneous time resolved fluorescence (HTRF)-based”, “cell-based high throughput” for “cell-based”, “CHO” for “CHO-K1”; type: functional

Sequence of Aurora kinase A (O14965 whole entry): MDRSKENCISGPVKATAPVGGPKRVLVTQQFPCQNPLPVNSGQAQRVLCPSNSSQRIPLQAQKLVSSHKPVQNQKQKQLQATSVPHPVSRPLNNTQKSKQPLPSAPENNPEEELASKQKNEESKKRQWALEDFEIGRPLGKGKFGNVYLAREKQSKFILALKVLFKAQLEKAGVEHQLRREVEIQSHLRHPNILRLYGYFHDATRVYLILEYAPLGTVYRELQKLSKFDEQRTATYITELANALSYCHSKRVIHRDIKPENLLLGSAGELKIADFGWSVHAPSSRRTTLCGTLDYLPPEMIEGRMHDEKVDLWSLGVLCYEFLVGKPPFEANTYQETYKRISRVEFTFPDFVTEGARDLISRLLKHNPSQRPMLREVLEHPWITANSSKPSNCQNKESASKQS
Sequence of Beta Lactamase (Q932Y6 whole entry): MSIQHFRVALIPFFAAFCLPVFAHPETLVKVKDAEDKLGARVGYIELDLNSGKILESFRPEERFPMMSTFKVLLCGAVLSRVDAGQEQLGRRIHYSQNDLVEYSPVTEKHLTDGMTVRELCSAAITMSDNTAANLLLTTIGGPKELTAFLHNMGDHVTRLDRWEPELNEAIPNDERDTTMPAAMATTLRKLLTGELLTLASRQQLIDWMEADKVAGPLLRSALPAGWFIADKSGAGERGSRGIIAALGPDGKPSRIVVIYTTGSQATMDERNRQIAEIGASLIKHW
Sequence of Protein disulfide-isomerase (P07237 whole entry): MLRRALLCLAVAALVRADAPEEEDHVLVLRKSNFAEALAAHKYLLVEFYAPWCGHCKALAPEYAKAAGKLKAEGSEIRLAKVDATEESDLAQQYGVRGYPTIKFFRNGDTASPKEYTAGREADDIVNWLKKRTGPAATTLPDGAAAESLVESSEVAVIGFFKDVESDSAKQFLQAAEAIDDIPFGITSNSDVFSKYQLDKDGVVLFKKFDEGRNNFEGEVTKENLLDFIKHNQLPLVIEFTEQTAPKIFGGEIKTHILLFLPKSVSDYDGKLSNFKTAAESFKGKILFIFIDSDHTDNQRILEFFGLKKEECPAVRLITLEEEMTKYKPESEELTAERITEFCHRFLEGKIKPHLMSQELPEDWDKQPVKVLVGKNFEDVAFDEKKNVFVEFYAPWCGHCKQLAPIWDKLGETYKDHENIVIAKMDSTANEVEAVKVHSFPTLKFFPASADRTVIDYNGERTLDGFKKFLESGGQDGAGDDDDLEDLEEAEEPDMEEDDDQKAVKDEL
Sequence of Aurora kinase B (Q96GD4 whole entry): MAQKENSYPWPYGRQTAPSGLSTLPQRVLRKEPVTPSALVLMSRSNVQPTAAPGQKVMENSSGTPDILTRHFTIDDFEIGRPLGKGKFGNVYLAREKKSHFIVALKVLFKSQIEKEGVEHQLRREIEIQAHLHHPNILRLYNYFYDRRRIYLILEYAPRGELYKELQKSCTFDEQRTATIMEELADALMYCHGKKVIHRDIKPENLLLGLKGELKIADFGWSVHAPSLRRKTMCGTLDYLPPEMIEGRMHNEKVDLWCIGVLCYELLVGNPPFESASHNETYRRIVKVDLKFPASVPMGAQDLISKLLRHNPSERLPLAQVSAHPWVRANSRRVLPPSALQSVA
Sequence of Paired box protein Pax-8 (Q06710 whole entry): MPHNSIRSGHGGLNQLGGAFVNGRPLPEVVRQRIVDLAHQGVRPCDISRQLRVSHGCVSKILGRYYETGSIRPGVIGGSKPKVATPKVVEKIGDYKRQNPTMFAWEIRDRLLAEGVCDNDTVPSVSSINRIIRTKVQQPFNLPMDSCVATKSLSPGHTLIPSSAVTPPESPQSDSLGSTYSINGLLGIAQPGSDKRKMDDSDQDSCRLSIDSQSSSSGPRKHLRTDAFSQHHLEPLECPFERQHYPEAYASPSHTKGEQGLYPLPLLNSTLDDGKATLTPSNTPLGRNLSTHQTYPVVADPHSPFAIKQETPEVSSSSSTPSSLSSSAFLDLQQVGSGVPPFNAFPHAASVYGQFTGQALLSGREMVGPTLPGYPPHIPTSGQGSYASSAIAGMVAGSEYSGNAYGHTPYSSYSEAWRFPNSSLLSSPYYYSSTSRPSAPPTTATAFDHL
Sequence of Ras and Rab interactor 1/Tyrosine-protein kinase ABL1 (P00519 whole entry): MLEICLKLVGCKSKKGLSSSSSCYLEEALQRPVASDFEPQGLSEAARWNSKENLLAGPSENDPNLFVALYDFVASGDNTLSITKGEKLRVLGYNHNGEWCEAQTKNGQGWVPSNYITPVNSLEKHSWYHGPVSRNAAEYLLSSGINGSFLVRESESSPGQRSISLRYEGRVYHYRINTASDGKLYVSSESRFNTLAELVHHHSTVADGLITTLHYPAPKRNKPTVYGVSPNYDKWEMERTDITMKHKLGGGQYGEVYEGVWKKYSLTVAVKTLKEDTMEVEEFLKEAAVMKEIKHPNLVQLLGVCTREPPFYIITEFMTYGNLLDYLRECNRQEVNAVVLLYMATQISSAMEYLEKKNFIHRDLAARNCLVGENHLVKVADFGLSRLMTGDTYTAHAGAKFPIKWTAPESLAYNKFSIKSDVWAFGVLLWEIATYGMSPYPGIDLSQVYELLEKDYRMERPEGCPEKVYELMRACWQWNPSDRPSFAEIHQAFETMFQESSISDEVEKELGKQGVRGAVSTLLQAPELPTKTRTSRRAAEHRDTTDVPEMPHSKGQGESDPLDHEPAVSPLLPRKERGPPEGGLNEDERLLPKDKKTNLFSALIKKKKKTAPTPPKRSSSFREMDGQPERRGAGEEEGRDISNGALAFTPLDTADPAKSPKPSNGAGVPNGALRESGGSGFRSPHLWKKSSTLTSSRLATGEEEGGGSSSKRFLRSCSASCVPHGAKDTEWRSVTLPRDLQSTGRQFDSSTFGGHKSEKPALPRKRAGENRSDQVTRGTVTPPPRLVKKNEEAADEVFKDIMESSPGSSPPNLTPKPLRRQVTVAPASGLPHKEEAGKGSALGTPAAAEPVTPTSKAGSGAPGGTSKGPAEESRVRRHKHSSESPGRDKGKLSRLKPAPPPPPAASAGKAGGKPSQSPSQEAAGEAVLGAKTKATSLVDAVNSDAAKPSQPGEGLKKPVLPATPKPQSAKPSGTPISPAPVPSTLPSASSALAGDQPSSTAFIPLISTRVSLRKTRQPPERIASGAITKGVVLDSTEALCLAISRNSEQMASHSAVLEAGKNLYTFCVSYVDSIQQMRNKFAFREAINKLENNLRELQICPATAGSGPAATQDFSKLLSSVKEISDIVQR
Sequence of Ras and Rab interactor 1/Tyrosine-protein kinase ABL1 (Q13671 whole entry): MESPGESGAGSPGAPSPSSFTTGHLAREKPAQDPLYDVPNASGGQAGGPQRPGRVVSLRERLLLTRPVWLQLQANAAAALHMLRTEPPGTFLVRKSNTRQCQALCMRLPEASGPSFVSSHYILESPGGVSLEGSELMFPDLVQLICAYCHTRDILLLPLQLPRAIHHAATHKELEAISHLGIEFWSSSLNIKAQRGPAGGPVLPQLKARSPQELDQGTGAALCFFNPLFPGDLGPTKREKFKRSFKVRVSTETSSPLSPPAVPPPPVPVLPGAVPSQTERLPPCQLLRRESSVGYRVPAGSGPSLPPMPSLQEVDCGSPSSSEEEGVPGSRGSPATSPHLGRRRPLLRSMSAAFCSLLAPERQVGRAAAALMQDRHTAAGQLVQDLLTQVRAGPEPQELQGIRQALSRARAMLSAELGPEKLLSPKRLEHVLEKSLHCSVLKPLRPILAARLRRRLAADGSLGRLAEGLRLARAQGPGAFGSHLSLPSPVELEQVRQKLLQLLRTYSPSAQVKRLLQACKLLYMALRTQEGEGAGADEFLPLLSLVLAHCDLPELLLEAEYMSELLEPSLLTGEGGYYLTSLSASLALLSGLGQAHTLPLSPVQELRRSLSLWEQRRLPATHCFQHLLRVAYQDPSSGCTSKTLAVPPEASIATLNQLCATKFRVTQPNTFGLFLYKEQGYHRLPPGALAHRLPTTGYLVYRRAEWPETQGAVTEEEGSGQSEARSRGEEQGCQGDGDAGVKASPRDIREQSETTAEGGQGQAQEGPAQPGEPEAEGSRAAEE
Sequence of Melanocortin receptor 4 (P32245 whole entry): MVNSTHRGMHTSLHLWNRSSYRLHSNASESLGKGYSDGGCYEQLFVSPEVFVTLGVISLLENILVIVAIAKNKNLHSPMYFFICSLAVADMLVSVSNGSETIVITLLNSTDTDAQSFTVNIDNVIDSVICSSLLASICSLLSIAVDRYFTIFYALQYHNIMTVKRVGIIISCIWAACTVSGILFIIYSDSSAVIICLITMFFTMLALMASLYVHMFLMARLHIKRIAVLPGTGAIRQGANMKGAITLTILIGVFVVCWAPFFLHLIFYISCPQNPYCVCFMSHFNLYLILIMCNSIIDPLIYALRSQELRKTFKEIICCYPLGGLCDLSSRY

Ki [1]: 0.0251 µM (active)
Ki [2]: 0.00794 µM (active)
SMILES: CCc1cccc(NC(=O)Nc2ccc(-c3csc4c(-c5cnn(C)c5)cnc(N)c34)cc2)c1

SMILES: Cc1ccc(S(=O)(=O)CCC(=O)c2ccc(O)cc2O)cc1
AC50 [3]: 4.59 µM (active)
EC50 [4]: 8.8 µM (active)
AC50 [5]: 15.6 µM (active)
EC50 [6]: 9.12 µM (active)

Ki [7]: 0.0158 µM (active)
Ki [2]: 0.158 µM (active)
SMILES: CCc1cccc(NC(=O)Nc2ccc(-c3c(C)oc4ncnc(N)c34)cc2)c1

IC50 [8]: 12.4 µM (inactive)
SMILES: COc1cc(C(=O)OCC(=O)Nc2ccc(S(=O)(=O)N3CCCC3)cc2)cc(OC)c1OC

SMILES: Cc1ccc(Cl)c(NC(=O)COC(=O)c2ccccc2C(=O)c2ccc(Cl)c([N+](=O)[O-])c2)c1Cl
IC50 [9]: > 49.8 µM (inactive)
EC50 [10]: 16.8 µM (inconclusive)
EC50 [11]: 3.87 µM (inconclusive)
IC50 [12]: 12.6 µM (inactive)
EC50 [13]: 2.71 µM (active)
EC50 [14]: 7.58 µM (active)

SMILES: COc1ccccc1N(CCOc1ccccc1)S(=O)(=O)c1ccccc1
AC50 [15]: 77.2 µM (active)

SMILES: O=C(Nc1nnc(-c2ccccc2)s1)c1cc(S(=O)(=O)N2CCOCC2)c(Cl)cc1Cl
IC50 [16]: > 2.39 µM (active)
IC50 [17]: > 64.6 µM (inactive)
IC50 [18]: > 50 µM (inactive)

IC50 [19]: 4.01 µM (active)
IC50 [20]: 7.77 µM (active)
SMILES: CCOCCn1c(CN2CCN(c3ccc(F)cc3)CC2)nc2c1c(=O)n(C)c(=O)n2C

SMILES: Cn1cnnc1Sc1ccc(/C=C/C(=O)c2ccc(O)cc2)cc1[N+](=O)[O-]
AC50 [5]: 0.422 µM (active)
AC50 [21]: 8.44 µM (active)

SMILES: CCN(CC)c1ccc2cc(-c3nc4ccccc4n3C)c(=O)oc2c1
IC50 [9]: 2.56 µM (active)
IC50 [22]: > 66.2 µM (inactive)
EC50 [10]: 0.345 µM (active)
IC50 [23]: 1.77 µM (active)
IC50 [12]: 29.4 µM (inactive)
EC50 [13]: < 0.12 µM (active)
IC50 [24]: 32 µM (inactive)
EC50 [14]: 0.185 µM (active)
IC50 [25]: > 50 µM (inactive)
IC50 [26]: 1.14 µM (active)
IC50 [27]: > 49.8 µM (inactive)

— ChEMBL document CHEMBL1201862, “PubChem BioAssay data set” (2004)
